Consider 4 molecules from patent US20180332879A1, “AGENT FOR IMPROVING AFTERTASTE HAVING HIGH INTENSITY SWEETENERS” (NAGAOKA CO., LTD., priority 2017, published 2018).

Residues, ends and D or L forms follow the SMILES beside them.

A short description of test [1]: Sweetness degree and taste characteristics of sweetener solutions equivalent to 8% by mass aqueous sugar solution. The note with it: intensity of sweetness, sweetness degree of sugar defined as 1. Here is the method: Solutions, each having a sweetness degree corresponding to an 8% by mass aqueous sugar solution, were prepared using the various high-intensity sweeteners shown in Table 1. In Table 1, each of the sweetness degrees represents the intensity of sweetness wherein the sweetness degree of sugar is defined as 1, and each of the concentrations represents the concentration of a high-intensity sweetener in the solution.

A short description of test [2]: Sensory evaluation by seven panelists: improvement of the quality of sweetness and impure taste of a high-intensity sweetener solution after adding the improving agent. The note with it: summary of Table 2. Here is the method: The resultant solution 1 (an aspartame solution) in Preparation Example 3 was added the resultant solution in Preparation Example 1 in an amount of 0.033% by mass. The concentration of isobutyl angelate added to the solution 1 was 0.0099 ppm by mass. The taste of the solution 1 having isobutyl angelate added thereto was evaluated by the following method.
The solution 1 (without addition of isobutyl angelate) was tasted by seven panelists (one twenty-something male, one thirty-something male, one forty-something male, one fifty-something male, one sixty-something male, and one twenty-something female and one thirty-something female). Subsequently, the seven panelists rinsed their mouths sufficiently, and then the solution 1 containing isobutyl angelate (with addition of isobutyl angelate) was tasted by the seven panelists. The panelists compared the isobutyl-angelate-free solution with the isobutyl-angelate-added solution, and then determined whether or not the quality of sweetness and the impure taste of the isobutyl-angelate-added solution were improved compared with the isobutyl-angelate-free solution in accordance with the following criteria. When the sum total of the scores determined by the seven panelists was 10 points or greater, it was determined that the quality of sweetness and the impure taste were improved. […]

With `CC1=CC(=O)NS(=O)(=O)O1` [Acesulfame potassium], the Sweetness degree in test [1] is reported as 200 times.

As to `COC(=O)[C@H](Cc1ccccc1)NC(=O)[C@@H](N)CC(=O)O` [Aspartame] (H-Asp-Phe-OMe), in test [1], the Sweetness degree stood at 200 times.

As for `OC[C@H]1O[C@H](O[C@]2(CCl)O[C@H](CCl)[C@@H](O)[C@@H]2O)[C@H](O)[C@@H](O)[C@H]1Cl` [Sucralose], in test [1], the Sweetness degree amounted to 600 times.

Regarding `C/C=C(/C)C(=O)OCC(C)C` [isobutyl angelate, Isobutyl angelate], the “Unpleasant aftertaste and impure taste (harsh, astringent) of a high-intensity sweetener in a solution” value in test [2] is reported as “can be improved”.
